# Article PMC4409069 (PLoS ONE, 2015)
# pIC50: −log10 of the molar value. Read-outs that look alike come from different tables or passages of the source. Ends that are not written are not given here.
# Key:
# MDCK cells = experiment: LDH assay of cell viability, MDCK cells; format: cell-based, canine; details: peptide 12.8 μM, 24 hrs, mean±SEM of 3 or 4 experiments
# Procedure: The LDH assay was performed using LDH cytoxicity detection kit (Clontech, CA, USA) according to the manufacturer’s instructions. In brief, MDCK cells were incubated with Phil82 IAV (with or without LL-37 and related peptides). Cells were also incubated with peptides alone. The incubation time (24 hrs) and assay conditions were exactly same as in fluorescent focus assays. The LDH activity was measured after the 24 hrs incubation of cells with IAV and/or peptides. Controls included uninfected/untreated cells as negative control (NC) and cells treated with lysis solution as positive control (PC). The percent cytotoxicity is obtained from OD values using the formula: [(Sample OD—NC OD) ÷ (PC OD—NC OD)] ×100
# [1] = tested on: A/California/04/09/H1N1 pandemic strain (Cal09); format: cell-based, influenza A virus
# [2] = tested on: A/California/04/09/H1N1 pandemic strain (Cal09); format: cell-based, influenza A virus; remark: listed apart in the source
# [3] = tested on: A/Philippines/2/82/H3N2 (Phil82); format: cell-based, influenza A virus
# [4] = tested on: A/California/04/09/H1N1 pandemic strain (Cal09); format: cell-based, influenza A virus; remark: listed apart in the source
# HBTE cells = experiment: LDH assay of cell viability, HBTE cells; format: cell-based, human; details: 24 hrs, mean±SEM of 3 or 4 experiments
# [5] = tested on: hemagglutination activity of Phil82 IAV; experiment: Hemagglutination (HA) inhibition assay; format: biochemical, influenza A virus; details: concentrations up to 12μM, three experiments, human type O red cells
# Procedure: HA inhibition was measured by serially diluting LL-37 peptides in round bottom 96 well plates (Serocluster U-Vinyl plates; Costar, Cambridge, MA) using PBS as a diluent and human type O red cells as described. 40 HA units of virus was used in the assay.
# [6] = tested on: Mex 1:7 (HA gene of A/Mexico/4108/09/H1N1 with the other 7 genes of NY01); format: cell-based, influenza A virus
# [7] = tested on: A/New York/312/01/H1N1 (NY01) seasonal strain; format: cell-based, influenza A virus
# [8] = tested on: Mex 2:6 (HA and NA of A/Mexico/09/H1N1, other genes of NY01); format: cell-based, influenza A virus
# [9] = tested on: neuraminidase (NA) activity of Phil82; format: biochemical, influenza A virus
# A/PR/8/34/H1N1 (PR-8) = format: cell-based, influenza A virus
# NA activity of Cal09 = format: biochemical, influenza A virus
# Cal09 = format: cell-based, influenza A virus
# NY01 = format: cell-based, influenza A virus
# [10] = HBTE no IAV, peptide 12.8 μM, LL-23V9 n = 1, * significantly reduced vs control
# [11] = HBTE+IAV (Phil82), peptide 12.8 μM, LL-23V9 n = 1, * significantly reduced vs control
# [12] = read-out: approximate 50% viral neutralizing concentration
Compound,% Viability of MDCK or HBTE Cells (MDCK cells; MDCK no IAV),% Viability of MDCK or HBTE Cells (MDCK cells; MDCK+IAV (Phil82)),"effect on infectivity, in words [1]","effect on infectivity, in words [2]","antiviral (neutralizing) activity, in words [3]","effect on replication, in words [4]",% Viability of MDCK or HBTE Cells (HBTE cells; [10]),% Viability of MDCK or HBTE Cells (HBTE cells; [11]),inhibition of hemagglutination activity [5],other results
LLGDFFRKVKEKIGKEFKRIVQR [LL-23V9],112±6%,108±7%,without activity,without activity,significantly increased activity compared to LL-23,modest but statistically significant inhibition,103%,99%,No inhibition was observed,
CRAMP [reference compound],,,,,,did not significantly inhibit,,,,"effect on replication, in words [6]: inhibited (albeit modestly); effect on replication, in words [7]: inhibited (albeit modestly); effect on replication, in words [8]: did not significantly inhibit"
CCOC(=O)C1=C[C@@H](OC(CC)CC)[C@H](NC(C)=O)[C@@H](N)C1 [Oseltamivir],,,,,,,,,,"inhibition of NA activity, in words [9]: marked reduction of NA activity"
"HNP-1: the human defensin HNP-1 (human neutrophil peptide), purchased from Bachem [reference compound]",,,,,,did inhibit Cal09,,,,
LLGDFFRKSKEKIGKEFKRIVQR [LL-23],105±4%,101±11%,without activity,without activity,slight antiviral activity,modest but statistically significant inhibition,98±1%,98±3%,No inhibition was observed,"approximate 50% viral neutralizing concentration (A/PR/8/34/H1N1 (PR-8)): >32μg/ml (>11.3 μM); pIC50 (A/PR/8/34/H1N1 (PR-8); [12]): < 4.95; approximate 50% viral neutralizing concentration [7]: >32μg/ml (>11.3 μM); pIC50 [7, 12]: < 4.95; approximate 50% viral neutralizing concentration [3]: >32μg/ml (>11.3 μM); pIC50 [3, 12]: < 4.95"
"CC[C@H](C)[C@H](NC(=O)[C@H](CCCCN)NC(=O)[C@H](CCC(=O)O)NC(=O)[C@H](CCCCN)NC(=O)[C@H](CO)NC(=O)[C@H](CCCCN)NC(=O)[C@H](CCCNC(=N)N)NC(=O)[C@H](Cc1ccccc1)NC(=O)[C@H](Cc1ccccc1)NC(=O)[C@H](CC(=O)O)NC(=O)CNC(=O)[C@H](CC(C)C)NC(=O)[C@@H](N)CC(C)C)C(=O)NCC(=O)N[C@@H](CCCCN)C(=O)N[C@@H](CCC(=O)O)C(=O)N[C@@H](Cc1ccccc1)C(=O)N[C@@H](CCCCN)C(=O)N[C@@H](CCCNC(=N)N)C(=O)N[C@H](C(=O)N[C@H](C(=O)N[C@@H](CCC(N)=O)C(=O)N[C@@H](CCCNC(=N)N)C(=O)N[C@H](C(=O)N[C@@H](CCCCN)C(=O)N[C@@H](CC(=O)O)C(=O)N[C@@H](Cc1ccccc1)C(=O)N[C@@H](CC(C)C)C(=O)N[C@@H](CCCNC(=N)N)C(=O)N[C@@H](CC(N)=O)C(=O)N[C@@H](CC(C)C)C(=O)N[C@H](C(=O)N1CCC[C@H]1C(=O)N[C@@H](CCCNC(=N)N)C(=O)N[C@H](C(=O)N[C@@H](CCC(=O)O)C(=O)N[C@@H](CO)C(=O)O)[C@@H](C)O)C(C)C)[C@@H](C)CC)C(C)C)[C@@H](C)CC [LL-37, reference compound]",92±11%,99±12%,,,clear dose-related antiviral activity,only slight inhibition at intermediate doses of LL-37 and actual enhancement of the replication of this strain at higher doses,57±6* %,55±6* %,No inhibition was observed,"inhibition of NA activity, in words (NA activity of Cal09): did not inhibit NA activity; effect on replication, in words [6]: inhibited at all concentrations tested; viral RNA at 24 hrs after infection, in words (Cal09): trend to increase of Cal09 in the cells in presence of LL-37 but this was again highly variable and not statistically significant; viral uptake by MDCK cells (viral M protein RNA in cell lysate), in words (Cal09): no significant difference in viral uptake; effect on replication, in words [7]: clear dose related inhibition; inhibition of NA activity, in words [9]: neither LL-37 nor the related peptides inhibited NA activity; IC50 [3, 12]: ~2 µg/mL; % Viability of MDCK or HBTE Cells (HBTE cells; HBTE no IAV, peptide 6.4 μM): 95±2%; % Viability of MDCK or HBTE Cells (HBTE cells; HBTE+IAV (Phil82), peptide 3.2 μM): 105±4%; % Viability of MDCK or HBTE Cells (HBTE cells; HBTE+IAV (Phil82), peptide 6.4 μM): 91±4%; effect on replication, in words [8]: inhibited by LL-37 at the lower concentration of 2.2μM but higher concentrations of LL-37 were not inhibitory; concentrations that significantly decreased viral RNA in supernatants and cells (NY01): ≥ 0.4 µM; viral RNA at 24 hrs after infection, in words (NY01): significant reduction in RNA of NY01 in both cells and supernatant; viral uptake by MDCK cells (viral M protein RNA), in words (NY01): significant reduction of uptake"
GIKEFKRIVQRIKDFLRNLV-NH2 [GI-20],103±7%,107±3%,significant inhibition,significant inhibition,approached or equaled that of full length LL-37,significant inhibition,103±3%,104±3%,No inhibition was observed,
